Laboratory results: ChEMBL document CHEMBL5653631, “A Potent and Selective ULK1 Inhibitor Suppresses Autophagy and Sensitizes Cancer Cells to Nutrient Stress” (iScience, 2018)
Values belong to the compound of their own block, whether it stands above or below them.

What was measured:
[1] = target: Serine/threonine-protein kinase Chk2 (Homo sapiens) (UniProt O96017); experiment: Inhibition of human recombinant CHK2 at 500 nM related to control ULK1
[2] = target: Dual specificity protein kinase CLK3 (Homo sapiens) (UniProt P49761); experiment: Inhibition of human recombinant CLK3 at 500 nM related to control ULK1
Chain of Dual specificity protein kinase CLK3 (Homo sapiens) (P49761 whole entry, looked up): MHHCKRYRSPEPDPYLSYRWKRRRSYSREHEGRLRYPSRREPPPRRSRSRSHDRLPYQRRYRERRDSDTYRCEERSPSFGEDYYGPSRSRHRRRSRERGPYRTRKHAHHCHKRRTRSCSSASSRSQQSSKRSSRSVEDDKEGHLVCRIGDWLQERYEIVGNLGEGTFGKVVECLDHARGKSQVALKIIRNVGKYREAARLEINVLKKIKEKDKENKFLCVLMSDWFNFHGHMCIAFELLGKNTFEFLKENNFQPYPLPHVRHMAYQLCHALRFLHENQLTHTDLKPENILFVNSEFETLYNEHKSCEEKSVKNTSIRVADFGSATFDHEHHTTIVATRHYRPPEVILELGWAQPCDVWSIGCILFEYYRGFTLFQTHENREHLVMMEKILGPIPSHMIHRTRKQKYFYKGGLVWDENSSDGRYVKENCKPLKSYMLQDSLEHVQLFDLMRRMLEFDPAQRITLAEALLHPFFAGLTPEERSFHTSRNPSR

[3] = target: T1, G protein-coupled receptor kinase 3 (Homo sapiens) (UniProt P35626); experiment: Inhibition of human recombinant BARK2 at 500 nM related to control ULK1
T1 sequence (whole entry): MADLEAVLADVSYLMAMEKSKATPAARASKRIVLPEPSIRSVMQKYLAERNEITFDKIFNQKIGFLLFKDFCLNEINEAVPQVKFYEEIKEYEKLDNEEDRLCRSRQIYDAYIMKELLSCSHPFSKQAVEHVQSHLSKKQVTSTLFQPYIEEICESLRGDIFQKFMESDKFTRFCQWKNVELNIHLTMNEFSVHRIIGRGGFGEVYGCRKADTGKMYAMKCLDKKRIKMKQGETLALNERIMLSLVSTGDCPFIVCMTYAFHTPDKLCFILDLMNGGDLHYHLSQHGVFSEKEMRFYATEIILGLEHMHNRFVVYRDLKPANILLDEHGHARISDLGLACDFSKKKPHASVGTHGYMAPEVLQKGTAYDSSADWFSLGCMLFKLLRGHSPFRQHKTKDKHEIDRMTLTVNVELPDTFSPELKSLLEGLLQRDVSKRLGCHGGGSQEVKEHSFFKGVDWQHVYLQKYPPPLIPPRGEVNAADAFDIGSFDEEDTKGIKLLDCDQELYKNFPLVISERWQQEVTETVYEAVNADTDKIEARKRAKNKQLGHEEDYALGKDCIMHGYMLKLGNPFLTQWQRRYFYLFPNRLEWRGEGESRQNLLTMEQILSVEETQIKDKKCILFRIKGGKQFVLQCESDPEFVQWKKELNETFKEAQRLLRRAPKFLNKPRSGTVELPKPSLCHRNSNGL

[4] = target: T2, Serine/threonine-protein kinase ULK3 (Homo sapiens) (UniProt Q6PHR2); experiment: Inhibition of human recombinant ULK3 at 40 nM related to control ULK1
T2 sequence (whole entry): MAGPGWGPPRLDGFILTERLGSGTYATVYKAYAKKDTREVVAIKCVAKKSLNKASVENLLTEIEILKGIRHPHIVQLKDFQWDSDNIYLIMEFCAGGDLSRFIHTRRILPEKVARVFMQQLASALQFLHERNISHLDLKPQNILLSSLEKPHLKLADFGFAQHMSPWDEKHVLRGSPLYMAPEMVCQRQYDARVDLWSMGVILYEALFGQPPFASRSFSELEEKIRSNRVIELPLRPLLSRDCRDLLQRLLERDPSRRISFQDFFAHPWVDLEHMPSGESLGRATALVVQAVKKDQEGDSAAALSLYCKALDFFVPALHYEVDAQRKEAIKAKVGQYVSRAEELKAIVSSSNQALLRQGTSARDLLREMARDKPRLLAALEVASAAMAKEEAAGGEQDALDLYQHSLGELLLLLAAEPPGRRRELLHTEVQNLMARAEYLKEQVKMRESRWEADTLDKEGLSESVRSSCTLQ

[5] = target: T3, Mitogen-activated protein kinase kinase kinase kinase 2 (Homo sapiens) (UniProt Q12851); experiment: Inhibition of human recombinant GCK at 40 nM in presence of ATP by radiometric assay relative to control
T3 sequence (whole entry): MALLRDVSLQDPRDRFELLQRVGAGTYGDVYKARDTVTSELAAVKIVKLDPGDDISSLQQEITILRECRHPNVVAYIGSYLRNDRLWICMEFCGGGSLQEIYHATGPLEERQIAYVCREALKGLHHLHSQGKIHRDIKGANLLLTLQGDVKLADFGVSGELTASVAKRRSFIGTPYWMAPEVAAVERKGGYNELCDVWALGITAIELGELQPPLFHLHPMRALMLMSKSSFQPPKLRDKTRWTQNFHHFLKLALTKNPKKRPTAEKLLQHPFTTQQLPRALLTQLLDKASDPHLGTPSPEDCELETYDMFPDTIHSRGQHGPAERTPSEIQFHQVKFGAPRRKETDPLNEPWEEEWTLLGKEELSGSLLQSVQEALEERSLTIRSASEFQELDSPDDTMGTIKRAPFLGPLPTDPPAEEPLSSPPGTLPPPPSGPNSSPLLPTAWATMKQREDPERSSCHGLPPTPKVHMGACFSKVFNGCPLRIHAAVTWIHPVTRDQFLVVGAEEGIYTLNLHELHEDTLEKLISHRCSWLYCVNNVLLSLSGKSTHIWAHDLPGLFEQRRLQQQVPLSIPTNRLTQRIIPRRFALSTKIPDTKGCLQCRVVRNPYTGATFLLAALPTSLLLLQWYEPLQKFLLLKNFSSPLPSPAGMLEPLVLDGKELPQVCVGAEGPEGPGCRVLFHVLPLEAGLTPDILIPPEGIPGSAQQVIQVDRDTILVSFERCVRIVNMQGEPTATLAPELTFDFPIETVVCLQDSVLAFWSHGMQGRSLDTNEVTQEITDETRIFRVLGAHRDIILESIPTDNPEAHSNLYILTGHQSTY

[6] = target: Myosin light chain kinase, smooth muscle (Homo sapiens) (UniProt Q15746); experiment: Inhibition of human recombinant smMLCK at 40 nM related to control ULK1
Chain of Myosin light chain kinase, smooth muscle (Homo sapiens) (Q15746 whole entry): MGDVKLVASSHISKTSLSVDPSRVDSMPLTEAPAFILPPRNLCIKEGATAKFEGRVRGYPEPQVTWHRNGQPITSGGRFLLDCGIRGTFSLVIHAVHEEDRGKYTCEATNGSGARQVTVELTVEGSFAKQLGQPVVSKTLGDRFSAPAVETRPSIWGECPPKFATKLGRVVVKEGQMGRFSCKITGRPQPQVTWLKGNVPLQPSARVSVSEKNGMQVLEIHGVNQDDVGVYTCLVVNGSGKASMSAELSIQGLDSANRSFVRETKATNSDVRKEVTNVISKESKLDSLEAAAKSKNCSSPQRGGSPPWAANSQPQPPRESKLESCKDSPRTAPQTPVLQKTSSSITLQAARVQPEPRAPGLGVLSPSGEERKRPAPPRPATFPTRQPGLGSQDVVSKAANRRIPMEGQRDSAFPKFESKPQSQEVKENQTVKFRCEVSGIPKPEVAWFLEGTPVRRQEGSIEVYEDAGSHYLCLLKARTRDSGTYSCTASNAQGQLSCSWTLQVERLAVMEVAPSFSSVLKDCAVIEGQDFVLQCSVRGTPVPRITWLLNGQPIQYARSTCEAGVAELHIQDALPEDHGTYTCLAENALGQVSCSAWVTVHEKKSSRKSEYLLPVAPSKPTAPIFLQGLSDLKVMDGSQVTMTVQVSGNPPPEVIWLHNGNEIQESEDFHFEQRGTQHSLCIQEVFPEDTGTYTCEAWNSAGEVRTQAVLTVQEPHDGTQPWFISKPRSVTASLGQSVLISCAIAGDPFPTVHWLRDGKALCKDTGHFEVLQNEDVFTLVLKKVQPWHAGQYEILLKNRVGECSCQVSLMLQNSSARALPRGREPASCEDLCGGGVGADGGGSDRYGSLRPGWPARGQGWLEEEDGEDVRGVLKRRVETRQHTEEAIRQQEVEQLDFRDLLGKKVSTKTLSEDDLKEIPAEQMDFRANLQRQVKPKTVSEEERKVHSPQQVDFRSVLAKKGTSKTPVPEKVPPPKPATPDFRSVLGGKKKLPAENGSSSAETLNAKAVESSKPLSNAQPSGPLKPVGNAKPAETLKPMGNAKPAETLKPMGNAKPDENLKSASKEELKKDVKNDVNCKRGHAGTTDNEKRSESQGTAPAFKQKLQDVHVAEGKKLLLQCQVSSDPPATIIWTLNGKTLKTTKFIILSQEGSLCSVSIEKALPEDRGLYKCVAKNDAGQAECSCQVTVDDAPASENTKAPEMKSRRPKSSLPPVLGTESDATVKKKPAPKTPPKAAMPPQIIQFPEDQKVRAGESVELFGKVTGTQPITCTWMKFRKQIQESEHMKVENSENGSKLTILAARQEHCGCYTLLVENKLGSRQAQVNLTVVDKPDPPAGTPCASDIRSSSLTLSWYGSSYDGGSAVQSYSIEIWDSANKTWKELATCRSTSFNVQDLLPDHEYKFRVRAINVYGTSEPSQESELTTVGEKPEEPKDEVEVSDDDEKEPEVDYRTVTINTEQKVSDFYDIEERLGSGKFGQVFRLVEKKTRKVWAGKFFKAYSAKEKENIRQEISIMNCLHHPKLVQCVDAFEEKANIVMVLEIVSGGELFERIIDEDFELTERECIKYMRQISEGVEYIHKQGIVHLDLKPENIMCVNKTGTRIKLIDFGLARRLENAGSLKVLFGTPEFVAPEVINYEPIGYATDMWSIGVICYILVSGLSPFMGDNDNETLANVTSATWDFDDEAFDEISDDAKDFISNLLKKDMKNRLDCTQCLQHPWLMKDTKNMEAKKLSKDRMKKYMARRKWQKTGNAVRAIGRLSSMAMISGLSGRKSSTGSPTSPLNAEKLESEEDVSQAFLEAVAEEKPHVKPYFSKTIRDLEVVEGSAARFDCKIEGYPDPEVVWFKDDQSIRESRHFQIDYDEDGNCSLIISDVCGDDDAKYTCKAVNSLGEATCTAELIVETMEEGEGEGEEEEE

[7] = target: Mitogen-activated protein kinase 10 (Homo sapiens) (UniProt P53779); experiment: Inhibition of human recombinant JNK3 at 40 nM related to control ULK1
Chain of Mitogen-activated protein kinase 10 (Homo sapiens) (P53779 whole entry): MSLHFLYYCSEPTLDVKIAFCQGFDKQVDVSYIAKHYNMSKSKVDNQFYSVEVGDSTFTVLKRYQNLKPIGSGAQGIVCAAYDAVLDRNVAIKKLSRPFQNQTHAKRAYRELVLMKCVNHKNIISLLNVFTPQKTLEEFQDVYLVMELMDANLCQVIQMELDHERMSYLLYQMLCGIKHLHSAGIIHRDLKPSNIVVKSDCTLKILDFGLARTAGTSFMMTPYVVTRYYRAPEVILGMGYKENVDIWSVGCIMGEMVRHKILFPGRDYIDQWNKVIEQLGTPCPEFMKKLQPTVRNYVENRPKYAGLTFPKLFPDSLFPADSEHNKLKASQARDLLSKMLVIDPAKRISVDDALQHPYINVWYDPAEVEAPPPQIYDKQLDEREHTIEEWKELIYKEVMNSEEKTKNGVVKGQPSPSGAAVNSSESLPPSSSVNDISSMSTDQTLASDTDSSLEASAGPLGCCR

[8] = target: Platelet-derived growth factor receptor alpha (Homo sapiens) (UniProt P16234); experiment: Inhibition of human recombinant PDGFRa at 15 nM related to control ULK1
Chain of Platelet-derived growth factor receptor alpha (Homo sapiens) (P16234 whole entry): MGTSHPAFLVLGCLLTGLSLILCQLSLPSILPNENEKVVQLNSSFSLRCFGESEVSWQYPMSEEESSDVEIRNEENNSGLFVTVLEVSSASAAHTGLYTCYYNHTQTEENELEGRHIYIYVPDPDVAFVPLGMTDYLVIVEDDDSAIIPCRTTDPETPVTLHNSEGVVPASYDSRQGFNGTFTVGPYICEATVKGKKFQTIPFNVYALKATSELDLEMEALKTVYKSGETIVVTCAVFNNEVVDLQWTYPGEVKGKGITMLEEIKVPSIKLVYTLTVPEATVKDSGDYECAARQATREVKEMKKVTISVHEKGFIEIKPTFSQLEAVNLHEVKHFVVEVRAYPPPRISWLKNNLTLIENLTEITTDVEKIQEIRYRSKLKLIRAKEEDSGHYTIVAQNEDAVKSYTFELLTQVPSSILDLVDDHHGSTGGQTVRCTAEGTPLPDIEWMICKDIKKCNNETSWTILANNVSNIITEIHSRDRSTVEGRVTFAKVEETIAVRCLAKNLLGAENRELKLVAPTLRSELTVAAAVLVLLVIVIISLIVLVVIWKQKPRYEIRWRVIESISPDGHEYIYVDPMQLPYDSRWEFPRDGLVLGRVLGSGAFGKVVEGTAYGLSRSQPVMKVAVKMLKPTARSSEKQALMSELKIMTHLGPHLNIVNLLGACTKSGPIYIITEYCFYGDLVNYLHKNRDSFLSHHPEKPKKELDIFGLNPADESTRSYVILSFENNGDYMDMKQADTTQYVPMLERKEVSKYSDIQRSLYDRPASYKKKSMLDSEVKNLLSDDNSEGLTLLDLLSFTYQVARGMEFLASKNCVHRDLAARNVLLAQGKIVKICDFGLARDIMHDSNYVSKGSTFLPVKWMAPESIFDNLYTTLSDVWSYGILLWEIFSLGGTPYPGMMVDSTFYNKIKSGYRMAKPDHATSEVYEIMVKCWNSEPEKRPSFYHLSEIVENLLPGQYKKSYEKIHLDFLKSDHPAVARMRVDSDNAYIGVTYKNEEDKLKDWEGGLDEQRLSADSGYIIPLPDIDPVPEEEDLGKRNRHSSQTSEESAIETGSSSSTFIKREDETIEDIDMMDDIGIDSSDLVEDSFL

Chain of Serine/threonine-protein kinase Chk2 (Homo sapiens) (O96017 whole entry): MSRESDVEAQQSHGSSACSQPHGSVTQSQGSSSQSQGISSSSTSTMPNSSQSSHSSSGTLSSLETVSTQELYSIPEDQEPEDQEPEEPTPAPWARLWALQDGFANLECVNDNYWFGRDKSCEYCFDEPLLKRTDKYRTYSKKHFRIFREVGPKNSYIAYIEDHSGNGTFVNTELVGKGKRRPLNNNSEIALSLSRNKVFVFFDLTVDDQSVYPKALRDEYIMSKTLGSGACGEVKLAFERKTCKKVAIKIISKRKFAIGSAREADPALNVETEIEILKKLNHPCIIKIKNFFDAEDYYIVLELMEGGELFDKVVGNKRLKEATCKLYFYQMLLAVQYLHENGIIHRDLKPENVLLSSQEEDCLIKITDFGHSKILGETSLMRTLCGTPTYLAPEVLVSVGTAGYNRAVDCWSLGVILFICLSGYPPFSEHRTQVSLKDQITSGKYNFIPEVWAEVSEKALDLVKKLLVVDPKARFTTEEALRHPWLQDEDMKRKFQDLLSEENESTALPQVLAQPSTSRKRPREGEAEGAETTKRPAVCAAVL

- fold change (FC) [1]: 0
- fold change (FC) [2]: 0
- fold change (FC) [3]: 0.09
SMILES: CNC(=O)c1ccccc1Oc1nc(Nc2cc(OC)c(OC)c(OC)c2)ncc1Br

- fold change (FC) [4]: 0.07
- inhibition [5]: 0%
- fold change (FC) [6]: 0.07
- fold change (FC) [7]: 0
SMILES: O=C(N[C@@H](C1CC1)C(F)(F)F)c1cc(-c2cnn3cc(-c4ccc(F)cc4)cnc23)cs1

- fold change (FC) [8]: 0.06
SMILES: CC(C)[C@H](NC(=O)c1cc(-c2cnn3cc(-c4ccc(OCCN5CCCCC5)cc4)cnc23)cs1)C(F)(F)F
